The record followed here is patent US20070292351A1, “Assay for efficacy of histone deacetylase inhibitors” (Methylgene, Inc., priority 2006, published 2007).

Assay [1] relates to human peripheral white cells. Nature of the assay: Microarray gene expression analysis, peripheral white cells ex vivo. It is filed as cell-based. To be noted: WBC ex vivo. As for the experimental part: (§1) Whole blood from either consenting healthy volunteers or consenting patients was centrifuged at 2500 rpm for 10 minutes at ambient temperature in a Sorvall RT-7 centrifuge (Mandel Scientific Co., Guelph, Ontario). Plasma was removed and buffy coat was collected. Five volumes of Erythrocyte Lysis Buffer (EL) (Qiagen Canada Inc., Mississauga, Ontario) were added into buffy coat. Buffy coat was incubated on ice for 20 minutes before it was centrifuged at 400 g for 10 minutes at 4° C. Supernatant was removed and buffy coat was washed twice with EL buffer and re-centrifuged. Buffy coat was resuspended in RPMI media and cells were counted with trypan blue exclusion. To isolate PBMCs, buffy coat cells were centrifuged over Lymphoprep (Axis-Shield, 1114544), and any remaining erythrocytes in the sample were lysed by treatment with EL lysis buffer (Qiagen, 79217). The cell pellets are washed and then re-suspended in RPMI containing 10% FBS.
Biological analysis was performed using Biointerpreter software.

Assay [2] concerns peripheral white cells. In words: Cytokine/chemokine transcription in peripheral white cells of AML patients treated in vivo. To be noted: for induction of transcription of IL-6, IL-8, IL-1b, MIP1b: in vivo. Also on record: species or system human. The procedure:
(§2) FIG. 15 Induction of transcription of IL-6, IL-8, IL-1b, MIP1b cytokine/chemokines by MGCD0103 in peripheral white cells ex vivo from a MDS patient and in vivo in an AML patient with response (Patient J).
as §1
(§3) Human patients with either solid tumors or leukemia/MDS diseases were enrolled in phase I studies with consensus forms. MGCD0103 were dosed into patients orally every other day (day 1, day 3, day 5 […]). Blood samples were withdrawled by using the Vacutainer sodium-heparin blood collection tubes (Becton Dickinson Laboratories, Franklin Lakes, N.J.) and shipped to the test site within 24 hours on ice-pack. Baseline samples were drawn immediately prior to the first drug dose, while the 24 hour samples were drawn at 24 hours post the first drug dose. The 48 hours samples were drawn at 48 hours post the first dose. For the 1 week samples, blood was drawn 72 hours after day 5 dose (3 accumulated doses during week 1).

Another assay deals with IL-6. In words: IL-6 protein levels in plasma by ELISA. The class given is in vivo, human. To be noted: leukemia patients, Day 8, ELISA (FIG. 17). The procedure:
FIG. 17 Induction of plasma IL-6 from leukemia patients from treated with MGCD0103 at Day 8, analyzed by ELISA assays.
Patient plasma samples at […] were analyzed by ELISA
as §3
Blood from patients was centrifuged at 2500 RPM for 10 min at 10° C. Plasma was separated and frozen until used. Plasma was thawed, and spun again at 2500 RPM for 10 min at 10° C. The level of IL-6 was determined by ELISA (eBioscience, San Diego, Calif.), following the manufacturer's instructions. IL-6 concentration (pg/ml) in the samples was calculated from a standard curve generated by using standard IL-6 also provided in the kit. […] All the data was calculated and plotted using Excel.
A general note: An ELISA detects its analyte on a solid surface through an enzyme-linked reagent.

The test system of assay [3] is implanted human NSCLC H460 tumors. Nature of the assay: Semi-quantitative PCR of p21 and MT3 in H460 tumors in nude mice. The class given is in vivo, nude mice (Balb/c). To be noted: 100 mg/kg oral. As for the experimental part:
FIG. 5 Induction of MT3 and p21 in implanted human NSCLC H460 tumors in vivo in nude mice. Nude mice (Balb/c) bearing human H460 tumors were treated with 100 mg/kg MGCD0103 or 0.5% HEC (Vehicle) by oral administration. After 6 h or 24 h, three mice from each group were sacrificed, their tumors harvested and analyzed. Panel A: p21 and MT3 RNA levels quantified by conventional semi-quantitative PCR, normalized to β-actin. Panel B: H4Ac level detected by immunoblot analysis, normalized to total histones.
RNA was extracted from 8×10^6 cells using the Qiagen RNeasy Mini kit (cat#74106, Qiagen, Missisauga Ont.) following the manufacturer's instructions. RT reaction was performed using the Expand Reverse Transcriptase kit from Roche (Cat#1 785 834 Roche Applied Biosciences, Laval, Que) with 1 μg total RNA together with 1 μl oligo(dT) primer (cat#y01212, Invitrogen-Canada, Burlington, Ont). cDNA was synthesized using an Eppendorf Mastercycler gradient PCR apparatus (Brinkmann Instruments Canada LTD., Mississauga, Ontario), using a two cycle protocol. For the 1st cycle reaction mixture (0.5 μl H2O, 4 μl of 5× Buffer, 2 μl DTT, 2 ul of 10 mM dNTPs, 0.5 μl RNAsin (cat#N211B, Promega, Fisher Scientific, Whitby, Ont.) and […] of the Expand Reverse Transcriptase (Cat#1785834, Roche, Laval, Quebec)) was incubated at 65° C. for 10 minutes and then set on ice. A second cycle was performed at 42° C. for 1 hour. The resulting cDNA products were kept at 4° C. until used.
One ul of the resulting cDNA was used for every amplification reaction with 18.9 ul H2O, 1.25 ul of 10 mM dNTPs, 0.5 ul of each primer pair, 2.5 ul of 10× Buffer. The PCR reaction was carried out in an Eppendorf Mastercycler gradient. The sequences of the primers used for the amplification of selected biomarkers, as well as the details of the PCR reaction cycles are featured below. All buffers came from Expand Long Template PCR system (Roche, Laval, Quebec, Cat#11681842001). All primers were synthesized by Invitrogen (Invitrogen-Canada, Burlington, Ont.) […]

The subject of assay [4] is peripheral white cells. Nature of the assay: Cytokine/chemokine transcription in peripheral white cells treated ex vivo. It is filed as cell-based, human. As for the experimental part: as §2, §1

Molecules are shown by their SMILES. Like-named read-outs stand apart in the source and are kept apart here.

On to `Nc1ccccc1NC(=O)c1ccc(CNc2nccc(-c3cccnc3)n2)cc1` [MGCD0103], for which the fold induction at 1 µM in assay [1] (probe A_23_P16523, read-out: Fold Induction of GDF15 transcription) was 18.8; in assay [1] (probe A_23_P41344, read-out: Fold Induction of EREG transcription), 12.8; in assay [1] (probe A_23_P52336, read-out: Fold Induction of UNC5B transcription) it was 2.66; in assay [1] (probe A_23_P94754, read-out: Fold Induction of TNFSF15 transcription), 4.43; in assay [1] (probe A_23_P114947, read-out: Fold Induction of RGS2 transcription), 4.43; in assay [1] (probe A_23_P142506, read-out: Fold Induction of GADD45B transcription), 2.9. Further, the fold induction at 1 µM turned out to be 2.69 in assay [1] (probe A_23_P149019, read-out: Fold Induction of BAI2 transcription); 3.12 in assay [1] (probe A_23_P151046, read-out: Fold Induction of KLRC1 transcription); 32.6 in assay [1] (probe A_23_P259071, read-out: Fold Induction of AREG transcription); 5.16 in assay [1] (probe A_23_P315273, read-out: Fold Induction of MT3 transcription); 3.32 in assay [1] (probe A_24_P5856, read-out: Fold Induction of TNFSF9 transcription); 10.5 in assay [1] (probe A_24_P217520, read-out: Fold Induction of EREG transcription). In addition, the “expression level of other cytokine/chemokines” value with peripheral white cells [2] (ex vivo/in vivo in patients (data not shown)) is on record as “either decreased or remained unmodified”. Besides, the “induction of transcription of IL-6, IL-8, IL-1b, MIP1b” value with peripheral white cells [2] (AML patient with response (Patient A) (FIG. 15)) is given as “induction”; in the assay with peripheral white cells [2] (two AML patients without clinical response (Patient B, C) (FIG. 15)), “No such induction”; in the assay with peripheral white cells [4] (peripheral white cells ex vivo from a MDS patient (Patient J) (FIG. 15)), “induction”; in the assay with peripheral white cells [4] (peripheral white cells from healthy volunteers treated ex vivo (FIG. 15)) it was “No such induction”. Besides, the “induction of plasma IL-6” value in the assay on IL-6 was “induction”. Also, the “persistence of gene induction (p21, MT3) in tumors” value in assay [3] is “at least 24 h”. The “induction of MT3 RNA in tumors” value in assay [3] (6 h or 24 h (FIG. 5A)) was “induction”. The “induction of p21 RNA in tumors” value in assay [3] (6 h or 24 h (FIG. 5A)) is “induction”.
